From US7632662B2, “Compounds, compositions and methods for producing antioxidants from carnitine” (priority 2002, dated 2009)
Like-named read-outs stand apart in the source and are kept apart here.

Columns and labels:
[1] = system: non-demented geriatric major depressive disorder (NDG-MDD) subjects; assay: Twelve-week open clinical study of ALCAR in geriatric major depressive disorder: HDRS, CIRS, side effects; format: in vivo, human; details: for HDRS score: oral
From the text: (§1) A twelve-week, open, clinical, ^31P MRSI study design was used to examine the possible effects of ALCAR on brain metabolism and depressive symptomatology in non-demented geriatric major depressive disorder (NDG-MDD). Two depressed, non-demented [Folstein Mini-Mental State Exam (MMSE)>24)] male subjects, were compared with six age, social-economic status, and medically matched non-demented controls (all male, mean age of 73.6±3.6 years, range 69.7-78.2 years). The two elderly depressed subjects completed baseline Structural Clinical Interview of DSM-IV (SCID) I/P version 2.0, HDRS (17 item), MMSE, UKU Side Effect Rating Scale (UKU), and Cumulative Illness Rating Scale (CIRS) to assess medical burden, baseline physical, ECG, and, laboratory tests for hematology, urine analysis, immunopathology, and blood chemistry. Follow-up visits for the depressed subjects were done every other week for 12 weeks. Efficacy (psychiatric evaluation) was assessed by changes in the HDRS which was performed at baseline and every other week for 12 weeks along with secondary measures (MMSE; CIRS; and UKU), whereas the CIRS was performed at baseline, 6, and 12 weeks. Physical examinations and EKGs were performed at baseline, 6, and 12 weeks. The baseline MR evaluation was scheduled and completed prior to the administration of ALCAR. Follow-up MR evaluations were at 6 and 12 weeks. Acetyl-L-carnitine was administered in the form of oral tablets containing 590 mg of acetyl-L-carnitine hydrochloride (500 mg acetyl-L-carnitine). The dosage regimen was fixed at three grams of acetyl-L-carnitine given two tablets three times a day for 12 weeks.
The statistical analysis was done using the Statview (SAS Institute, Inc.) software package. The pearson t correlation test used to correlate between variables.

[2] = system: brain PME(s-τc) and PCr levels; assay: 31P MRSI of brain metabolite levels in two depressed elderly subjects treated with ALCAR for 12 weeks; format: in vivo, human; details: for increase of prefrontal PCr levels with ALCAR treatment: prefrontal region
From the text: Phosphorus magnetic resonance spectroscopic imaging (^31P MRSI) analysis of two depressed elderly subjects treated with ALCAR for 12 weeks are compared with those of six normal non-demented, non-depressed subjects.
as §1
^31P MRSI acquisition—A custom built, doubly tuned transmit/receive volume head coil was used to acquire the ^1H MRI and 2D ^31P MRSI data on a GE Signa 1.5 T whole body MR imager. First, sets of axial and sagittal scout MR images were collected. […] A self-refocused spin echo pulse sequence with an effective flip range of 60° and an echo time of 2.5 ms, was used to acquire the ^31P MRSI (360 mm field of view, 30 mm slice thickness, 8×8 phase encoding steps [45×45×30 mm^3 nominal voxel dimensions], 2 s TR, 1024 data points, 4.0 kHz spectral bandwidth and 16 NEX).
MRSI post-processing and quantification—To optimize the right and left voxel positions for the six regions, the 8×8 ^31P grid was shifted with respect to the anatomical MRI and a mild spatial apodization (i.e., Fermi window with 90% diameter and 5% transition width) was applied prior to the inverse Fourier transform. The remaining processing steps were 100% automated. A 5 Hz exponential apodization was applied and the PME, phosphodiester (PDE), PCr, α-, γ-, and β-ATP, and inorganic orthophosphate (Pi), were modeled in the time domain with exponentially damped sinusoids and by omitting the first 2.75 ms of the free induction decay (FID) using the Marquardt-Levenberg algorithm. This approach ensured that the PME and PDE resonances primarily reflected the freely mobile, short correlation time (s-τc), water soluble PME(s-τc) and PDE(s-τc) metabolites without the influence of relatively broad underlying signals within the PME and PDE spectral region. […]

rat brain = assay: Effect of ALCAR on in vitro 31P MRS brain metabolite and phospholipid levels under normoxia and brief hypoxia; format: in vivo, Fischer 344 rats; details: for PCr levels: non-significant; for Phosphatidylserine (PtdS) levels, change: p<0.01
Experimental: FIG. 4 is a block diagram illustrating an effect of ALCAR on in vitro ^31P MRS α-GP and PCr levels under hypoxic (30 seconds) and normoxic conditions in Fischer 344 rats.
FIG. 5 is a block diagram illustrating an effect of ALCAR on in vitro ^31P MRS phospholipid levels under hypoxic and normoxic conditions in Fischer 344 rats.
The rat brain responds differentially to brief energetic stress (30 seconds of hypoxia) depending on the age of the animal. The effect of ALCAR (75 mg/kg animal weight injected intraperitoneally 1 hour before sacrificing the animal) on both normoxic rat brain and rat brain exposed to brief hypoxia (30 seconds) was investigated (FIGS. x and x). These studies were conducted on aged rats (30 months) to provide possible insights into human aged brain and MDD.

brain PME levels = assay: In vivo 31P MRSI in two young subjects with MDD; set-up: species or system human; details: 2 young MDD subjects; treatment with ALCAR
From the text: As part of an ongoing ^31P-^1H MRSI study of never-medicated, first-episode schizophrenia subjects three ^31P MRSI spectra on 2 MDD subjects (1 person, 1 person, 24∀2.3 years) were obtained. The MDD spectral results are compared with those obtained from 13 controls (6 males; 3 white, 2 African-American, 1 Asian and 7 females; 4 white, 3 African-American; 21∀1.0 years). PME levels in the MDD subjects were increased by approximately 15% (p=0.13) while there were decreases in the levels of PDE (approx. −7%; p=0.08), PCr (approx. −5%, p=0.61), and β-ATP (approx. −3%, p=0.87) (FIG. 6). Treatment with ALCAR lowered PME levels in the MDD subjects.

Aβ(1-40) peptide = target: T1, Aβ(1-40) peptide (Homo sapiens, UniProt P05067); assay: Acetylation of Aβ(1-40) peptide by ALCAR; format: biochemical
T1 construct: the Aβ(1-40) peptide derived from the ubiquitous protein, amyloid precursor protein

[3] = system: geriatric depressed subjects; details: cited from earlier work; for day 60 HDRS: 3.0 gm/day
[4] = system: canine model of complete, global cerebral ischemia and reperfusion; details: versus vehicle-treated control animals; p=0.0037; Rosenthal et al. 1992; cited from earlier work

T1 sequence (P05067 672-711 limits assumed): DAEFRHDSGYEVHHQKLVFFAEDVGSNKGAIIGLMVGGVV

SMILES: CC(=O)O[C@H](CC(=O)[O-])C[N+](C)(C)C [ALCAR, acetyl-L-carnitine]
- Side effects from ALCAR treatment ([1]; both depressed subjects, 12 weeks, three grams per day): mild
- laboratory exams and EKG ([1]; either depressed subject): No clinically significant abnormalities
- Side effects from ALCAR treatment ([1]; subject #1): dry mouth
- CIRS ([1]; subject #1, 6 weeks, baseline 7): 6
- HDRS score ([1]; subject #1, 6 weeks, baseline 15, three grams acetyl-L-carnitine per day): 1
- CIRS ([1]; subject #1, 12 weeks, baseline 7): 5
- HDRS score ([1]; subject #1, 12 weeks, baseline 15, three grams per day): 0
- Side effects from ALCAR treatment ([1]; subject #2): slight increase in perspiration
- CIRS ([1]; subject #2, 6 weeks, baseline 4): 4
- HDRS score ([1]; subject #2, 6 weeks, baseline 20, three grams per day): 17
- CIRS ([1]; subject #2, 12 weeks, baseline 4): 2
- HDRS score ([1]; subject #2, 12 weeks, baseline 20, three grams per day): 3
- PME(s-τc) levels in the superior temporal regions ([2]; after 12 weeks of ALCAR treatment, compared with normal subjects, p=0.05): elevated
- PCr levels in the prefrontal, basal ganglia and occipital regions ([2]; after 12 weeks of ALCAR treatment, compared with normal subjects, p=0.001, 0.022, 0.027): elevated
- prefrontal PME(s-τc) levels ([2]; baseline 1.5 to 2.0 SD higher than mean of controls, with ALCAR treatment): normalized
- increase of prefrontal PCr levels with ALCAR treatment ([2]; first of the two depressed subjects (respectively)): 27%
- increase of prefrontal PCr levels with ALCAR treatment ([2]; second of the two depressed subjects (respectively)): 31%
- Cardiolipin levels (rat brain; ALCAR/hypoxia): non-significantly reduced
- α-GP levels, change compared with controls (rat brain; ALCAR/hypoxia (30 seconds), aged rats (30 months), 75 mg/kg i.p., p=0.01): approximately +80%
- PCr levels (rat brain; ALCAR/hypoxia, p=0.07): decrease
- Phosphatidylserine (PtdS) levels, change (rat brain; ALCAR/hypoxic): approx. −75%
- Cardiolipin levels (rat brain; ALCAR/normoxia): unchanged
- α-GP levels (rat brain; ALCAR/normoxia, aged rats (30 months), 75 mg/kg intraperitoneally 1 hour before sacrifice): did not alter
- PCr levels (rat brain; ALCAR/normoxia): increase
- Phosphatidylserine (PtdS) levels, change (rat brain; ALCAR/normoxia): approx. −50%
- PME levels in the MDD subjects (brain PME levels): lowered
- acetylation of the Aβ(1-40) peptide (Aβ(1-40) peptide): can acetylate lysine 28
- day 60 HDRS ([3]; Bella et al. 1990, baseline HDRS 22, placebo day 60 = 20): 11
- day 60 HDRS ([3]; Fulgente et al. 1990, baseline HDRS 25, placebo day 60 = 22): 12
- HDRS ([3]; Garzya et al. 1990, 1.5 gm/day, ages 70-80 years): significant beneficial effects
- mean cortisol levels and 12 am and 4 pm cortisol levels ([3]; Gecele et al. 1991, 2 gm/day, p<0.001, p<0.001, p<0.01): significant reduction
- HDRS ([3]; Gecele et al. 1991, 2 gm/day, p<0.001): significant improvement
- HDRS scores ([3]; Nasca et al. 1989, day 40 of treatment, baseline HDRS 44.9, p<0.001): significant improvement
- side effects ([3]; Tempesta et al. 1987, 2 gm/day): no reported ALCAR side effects
- HDRS scores ([3]; Tempesta et al. 1987, open label cross over, 2 gm/day, subjects over 70 years): highly effective
- side effects ([3]; Villardita et al. 1983, 1.5 gm/day, 40 days): no side effects
- Hamilton Depressive Rating Scale (HDRS) ([3]; Villardita et al. 1983, 1.5 gm/day, day 40, baseline HDRS 26.3, p<0.001): significant improvement
- tolerability ([3]; randomized double-blind studies, even at the higher dosages (up to 3.0 gm/day)): well tolerated
- neurological deficit scores [4]: significantly lower
